Assay results published in patent US8981112B2, “Inhibitors of β-secretase” (Boehringer Ingelheim International GmbH, priority 2012, dated 2015).
pIC50: −log10 of the molar value. Where two headings read alike, the source gives them in different places.

Experiments:
[1] = tested on: production of Abeta1-x peptides in H4 neuroglioma cell line stably expressing human APP; test: H4-APPwt Cell-Based Assay (Assay 2), Abeta1-x production; details: for pIC50: Homo sapiens, Table 2 comparison examples, read-out: H4-Cell assay (assay 2); for IC50: H4 neuroglioma cells expressing human APP, Abeta1-x, read-out: H4-APPwt cell IC50 nM (assay 2)
Protocol: H4-APPwt Cell-Based Assay (Assay 2)
Cellular potency of the compounds of the invention was assessed in an assay monitoring production of Abeta1-x peptides in the H4 neuroglioma cell line (ATCC, Cat. #HTB-148) stably expressing human APP, using an immunoassay such as AlphaLISA (PerkinElmer, Cat.# AL288). Tested compounds were dissolved in DMSO and pre-diluted in the culture medium (DMEM containing 10% FBS and 1% penicillin/streptomycin) to achieve twice the final concentration of the compounds in the assay. Equal volumes of the 2× solutions of the tested compounds and cell suspension were added to a 96-well culture plate, so that each well contained ˜10,000 cells in a final volume of 200 μl. Final concentration of DMSO in the assay was 0.2%. The plates were incubated for 5 hrs at 37° C., 5% CO2 to allow cells to attach to the bottom of the wells in the presence of the tested compounds. Then the media was removed and replaced with fresh media containing tested compounds at the same final concentration. The plates were incubated for 18 hrs at 37° C., 5% CO2. Concentrations of Ab1-x were determined using AlphaLISA immunoassay (PerkinElmer, Cat.# AL288) following manufacturer's protocol. Concentrations of Abeta1-x in the wells containing either DMSO or 10 μM beta-secretase inhibitor (BACE inhibitor IV, EMD Bioscience, Cat. #565788) were used as uninhibited and background controls, correspondingly, for calculating percent inhibition values for each well with the tested compounds.

[2] = molecular target: hERG (Homo sapiens (Human), UniProt Q12809); test: hERG-Channel Assay (Assay 3), whole-cell patch clamp; type: cell-based; details: for inhibition at 10 µM: human, HEK293 cells stably transfected with hERG, pH 7.4, HEK293 cells transfected with hERG
Sequence of hERG (Q12809 whole entry): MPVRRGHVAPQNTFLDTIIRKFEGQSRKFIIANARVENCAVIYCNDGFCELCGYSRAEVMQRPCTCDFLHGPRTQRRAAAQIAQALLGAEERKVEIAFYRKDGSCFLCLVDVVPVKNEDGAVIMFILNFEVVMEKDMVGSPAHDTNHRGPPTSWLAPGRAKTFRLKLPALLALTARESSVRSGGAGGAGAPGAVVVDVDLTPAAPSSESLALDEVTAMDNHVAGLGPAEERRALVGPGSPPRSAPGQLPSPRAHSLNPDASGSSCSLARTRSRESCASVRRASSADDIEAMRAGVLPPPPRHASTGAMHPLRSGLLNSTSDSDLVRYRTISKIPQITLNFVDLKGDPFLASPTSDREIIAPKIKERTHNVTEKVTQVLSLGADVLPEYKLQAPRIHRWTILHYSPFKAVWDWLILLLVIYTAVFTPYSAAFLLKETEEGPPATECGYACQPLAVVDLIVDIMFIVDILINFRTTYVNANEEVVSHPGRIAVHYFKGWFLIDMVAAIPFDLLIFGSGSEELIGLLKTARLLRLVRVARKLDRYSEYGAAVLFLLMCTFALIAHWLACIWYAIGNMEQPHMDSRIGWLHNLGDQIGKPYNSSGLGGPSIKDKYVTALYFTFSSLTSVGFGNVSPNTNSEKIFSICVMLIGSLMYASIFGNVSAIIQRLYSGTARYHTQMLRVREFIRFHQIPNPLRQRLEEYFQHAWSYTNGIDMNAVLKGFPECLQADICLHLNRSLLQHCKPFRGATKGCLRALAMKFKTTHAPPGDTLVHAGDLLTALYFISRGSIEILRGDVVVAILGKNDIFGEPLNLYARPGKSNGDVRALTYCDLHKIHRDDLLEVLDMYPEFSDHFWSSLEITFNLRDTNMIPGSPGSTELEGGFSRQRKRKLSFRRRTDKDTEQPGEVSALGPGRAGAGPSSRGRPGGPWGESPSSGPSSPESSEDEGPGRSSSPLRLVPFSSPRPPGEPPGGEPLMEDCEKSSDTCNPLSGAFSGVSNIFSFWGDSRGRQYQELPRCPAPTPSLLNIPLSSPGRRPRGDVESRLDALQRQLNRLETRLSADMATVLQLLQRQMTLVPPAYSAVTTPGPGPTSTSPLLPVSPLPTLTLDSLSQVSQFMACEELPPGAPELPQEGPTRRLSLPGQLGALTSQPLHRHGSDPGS
Source text: hERG-Channel Assay (Assay 3)
HEK (human embryonic kidney) 293 cells were stably transfected with hERG cDNA.
Cells were superfused with a bath solution containing (mM): NaCl (137), KCl (4.0), MgCl2 (1.0), CaCl2 (1.8), Glucose (10), HEPES (10), pH 7.4 with NaOH. Patch pipettes were made from borosilicate glass tubing using a horizontal puller and filled with pipette solution containing (mM): K-aspartate (130), MgCl2 (5.0), EGTA (5.0), K2ATP (4.0), HEPES (10.0), pH 7.2 with KOH. Resistance of the microelectrodes was in the range between 2 and 5 MΩ.
Membrane currents were recorded using an EPC-10 patch clamp amplifier and PatchMaster software. hERG-mediated membrane currents were recorded at 35° C., using the whole-cell configuration of the patch-clamp technique. Transfected HEK293 cells were clamped at a holding potential of −60 mV and hERG-mediated inactivating tail currents were elicited using a pulse pattern with fixed amplitudes (activation/inactivation: 40 mV for 2000 ms; recovery: −120 mV for 2 ms; ramp to 40 mV in 2 ms; inactivating tail current: 40 mV for 50 ms) repeated at 15 s intervals. During each inter-pulse interval 4 pulses scaled down by a factor of 0.2 were recorded for a P/n leak subtraction procedure. Rs compensation was employed up to a level that safely allowed recording devoid of ringing.
The different concentrations of the test compound were applied sequentially on each of the different cells investigated. A steady state level of baseline current was measured for at least 6 sweeps prior to the application of the first test compound concentration.
The test compound was dissolved in DMSO to yield a master stock solution which was diluted further in DMSO to stock solutions needed for the lower concentrations. Final dilutions in extracellular buffer were prepared freshly from these stocks by a 1:1000 dilution step each before starting the experiments.
Peak current amplitudes were measured 3 ms after the ramp to +40 mV. For baseline and each concentration the peak currents of the three last sweeps before application of the next concentration were averaged. Residual currents (I/I0) were calculated for each cell as the fraction of actual average peak current and average baseline peak current. Results are presented as percent (%) inhibition (1−I/I0)*100% at 10 μM.

[3] = molecular target: truncated human beta-secretase, BACE1 (amino acids 1-454) (Homo sapiens (Human), UniProt P56817); test: BACE1 Assay (Assay 1), fluorescence quench assay; type: biochemical; details: for pIC50: Table 2 comparison examples, read-out: BACE IC50 (assay 1); for IC50: read-out: BACE1 IC50 nM (assay 1)
Sequence of truncated human beta-secretase, BACE1 (amino acids 1-454) (P56817 22-454): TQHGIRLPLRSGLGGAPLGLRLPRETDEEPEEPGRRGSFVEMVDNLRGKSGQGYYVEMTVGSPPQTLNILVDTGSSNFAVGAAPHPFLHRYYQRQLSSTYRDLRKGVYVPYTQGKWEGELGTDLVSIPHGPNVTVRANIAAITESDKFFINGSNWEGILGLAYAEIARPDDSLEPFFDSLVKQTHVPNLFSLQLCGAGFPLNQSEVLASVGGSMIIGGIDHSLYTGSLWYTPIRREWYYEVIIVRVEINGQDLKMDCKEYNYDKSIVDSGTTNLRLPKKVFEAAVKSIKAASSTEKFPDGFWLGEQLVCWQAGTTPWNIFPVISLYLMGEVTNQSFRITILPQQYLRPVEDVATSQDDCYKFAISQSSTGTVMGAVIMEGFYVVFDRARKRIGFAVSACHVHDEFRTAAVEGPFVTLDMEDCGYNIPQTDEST
Protocol: The substrate was dissolved at 1 mg/ml in DMSO.
The assay was performed in the presence of OptiMEM (supernatant collected over 24 h and cleared from cellular debris by centrifugation) containing the ectodomain of BACE1, 25 μl water containing the desired 2-fold concentration of test compound and 2% DMSO, 1 μM substrate peptide, 20 mM NaOAc, pH 4.4, and 0.04% Triton-X100 in a total assay volume of 50 μl in a 384 well plate. In general, 25 μl of compound dilution were given to the plate followed by the addition of 10 μl of BACE1 containing OptiMEM™ diluted 1:10 in water with 0.2% Triton X-100. The reaction was started with the addition of 15 μl substrate in NaOAc buffer. The reaction was incubated at rt (dark) in an Envision® multilabel reader (Perkin Elmer) and the cleavage of the substrate was recorded as kinetic for 60 min at ex: 485 nm, em: 538 nm. Blank wells containing no enzyme were included on each plate.
The intensity of fluorescence was regressed against time in order to derive velocities of reaction in all 384 wells. These velocities were used for calculating percent control using an uninhibited control containing 1% DMSO as 100% and blank control performed in the absence of enzyme as 0%. IC50 values were calculated by fitting percent control vs. test compound concentration using Assay Explorer.

[4] = In Vitro Phospholipidosis Assay (Assay 4), Nile red staining; type: cell-based; details: human, first effect concentration, U937 cells, read-out: Phospholipidosis FEC IC50 μM (assay 4)
Protocol: In Vitro Phospholipidosis Assay (Assay 4)
The phospholipidogenic potential of test compounds was assayed using the human hematopoetic U937 cell line. The test principle was to analyze the phospholipid content by staining the cells with the fluorescent dye Nile red.
U937 cells were seeded into cell culture plates at 0.5×10^6 cells/mL in RPMI medium containing 10% FBS, 1% DMSO, and 0.005% gentamicin. The cells were then cultivated with or without different concentrations of test compounds for 48 h under standard culture conditions.
For harvesting the cells were centrifuged at 130×g for 4 min and washed once with PBS. Then 2×0.5 mL cell suspension was prepared for non-fixed cell measurement (0.5 mL for propidium iodide (PI) viability measurement and 0.5 mL for Nile red measurement).
The remaining cells were fixed with 3.7% formaldehyde for 30 min. After a further centrifugation step cells were resuspended with 1.3 mL Nile red working solution (1 μg/mL) and incubated for 5 min at rt. The cell suspension was then washed twice with 3 mL PBS and centrifuged with 130×g for 4 min. The supernatant was discarded and the cells were resuspended with 0.5 mL PBS and kept for flow cytometry measurement. For Nile red staining of the 0.5 mL non-fixed cell samples, 50 μL of a ready to use Nile red solution (10 μg/mL) were added per sample. Samples were kept on ice for 5 min. Thereafter, they were washed once with 4 mL PBS (4° C., 250×g for 8 min) and finally resuspended in 400 μL PBS and kept for flow cytometry measurement.
For the viability measurement, 12.5 μL of the ready to use PI solution (10 μg/mL) were added to the 0.5 mL non-fixed cell suspension. After 15 min of incubation on ice, the samples were measured by flow cytometry using a Coulter Epics XL/MCL flow cytometer.
The viability of the cells of each sample was determined by flow cytometry measurement of the PI content at channel 2 (568-590 nm). Cut-off gates for the fluorescence-dependent differentiation between live and dead cells were defined based on the analysis of cell culture medium control samples.
Only samples with a cell viability of >=90% relative to control samples were analyzed for phospholipidosis. For that, each Nile red sample (non-fixed and fixed samples) was measured by flow cytometry at channel 1 (504-541 nm) and channel 4 (660-680 nm).
For each channel, relative Nile red fluorescence intensity of a test sample was calculated compared to control samples and expressed as percentage of control fluorescence intensity. The assessment of the phospholipidogenic potential and the first effect concentration (FEC) of a test compound was done manually based on the fluorescence intensities at both wavelengths for the fixed cells as well as for the non-fixed cells.

Structure (SMILES) | pIC50 [1] | pIC50 [3] | IC50 [3] [nM] | IC50 [1] [nM] | hERG (assay 3) ([2]; at 10 μM, Table 2 comparison examples) | inhibition at 10 µM [2] [%] | IC50 at 48 h [4] [µM]
COC1CCC2(CC1)Cc1ccc(C#N)cc1C21N=C(N)N(CC2CCCO2)C1=O (centres unmarked) [Comparison example drawing 11, reference compound] | 8.15 |  |  |  | hERG (assay 3) 16% at 10 μM |  | 
CC[C@@H]1C[C@]2(CC[C@H]1OC)Cc1ccc(C#N)cc1[C@]21N=C(N)N(Cc2ncccn2)C1=O [Example 1] |  |  | 11 | 0.76 |  | 8 | 200
CC[C@@H]1C[C@]2(CC[C@H]1OC)Cc1ccc(C#N)cc1[C@]21N=C(N)N(CC(C)(C)F)C1=O [Example 3] |  |  | 10 | 0.57 |  | 9 | > 200
COCCN1C(=O)[C@]2(N=C1N)c1cc(C#N)ccc1C[C@@]21CC[C@H](OC)[C@@H](C)C1 [Example 7] |  |  | 2 | 1.42 |  | 8 | 400
CO[C@H]1[C@H](C)C[C@@]2(Cc3ccc(C#N)cc3[C@]23N=C(N)N(CC2(C)COC2)C3=O)C[C@@H]1C [Example 11] |  |  | 4 | 0.35 |  | 6 | > 400
CO[C@H]1[C@H](C)C[C@@]2(Cc3ccc(C#N)cc3[C@]23N=C(N)N(CC2CCOCC2)C3=O)C[C@@H]1C [Example 16] |  |  | 11 | 0.2 |  | 6 | 200
CO[C@H]1[C@H](C)C[C@@]2(Cc3ccc(C#N)cc3[C@]23N=C(N)N(CCC2COC2)C3=O)C[C@@H]1C [Example 19] |  |  | 6 | 0.4 |  | 8 | 400
CO[C@H]1[C@H](C)C[C@@]2(Cc3ccc(F)cc3[C@]23N=C(N)N(C[C@@H]2CCOC2)C3=O)C[C@@H]1C [Example 25] |  |  |  | 0.99 |  | 10 | 200

More lines, main results first:

pIC50 [1] | pIC50 [3] | IC50 [3] [nM] | IC50 [1] [nM] | Structure (SMILES) | hERG (assay 3) ([2]; at 10 μM, Table 2 comparison examples) | inhibition at 10 µM [2] [%] | IC50 at 48 h [4] [µM]
7.80 | 7.31 |  |  | COCCN1C(=O)C2(N=C1N)c1cc(C#N)ccc1C[C@]21CC[C@@H](OC)CC1 (some centres unmarked) [Comparison example drawing 14, reference compound] |  |  | 
7.80 | 6.97 |  |  | COC1CCC2(CC1)Cc1ccc(C#N)cc1C21N=C(N)N(C(C)C)C1=O (centres unmarked) [Comparison example drawing 17, reference compound] |  |  | 
7.80 | 6.38 |  |  | CO[C@H]1CC[C@]2(CC1)Cc1ccc(CCC3CC3)cc1[C@]21N=C(N)N(C[C@@H]2CCO2)C1=O [Comparison example drawing 20, reference compound] |  |  | 
 |  |  | 0.9 | CC[C@H]1C[C@@]2(CC[C@@H]1OC)Cc1ccc(C#N)cc1[C@]21N=C(N)N(C[C@H]2CCCO2)C1=O [Example 5] |  | 7 | 200
 |  | 9 | 1.12 | CO[C@H]1[C@H](C)C[C@@]2(Cc3ccc(C#N)cc3[C@]23N=C(N)N(Cc2ncc(F)cn2)C3=O)C[C@@H]1C [Example 10] |  | 38 | 200
 |  | 5 | 0.65 | CO[C@H]1[C@H](C)C[C@@]2(Cc3ccc(C#N)cc3[C@]23N=C(N)N(Cc2ccncn2)C3=O)C[C@@H]1C [Example 24] |  | 23 | 200
 |  | 6 | 0.95 | CO[C@H]1CC[C@@]2(Cc3ccc(C#N)cc3[C@]23N=C(N)N(CC2COCCO2)C3=O)C[C@@H]1C (some centres unmarked) [Example 27] |  | 19 | > 200
